From publication PMC10526199 (Biomolecules, 2023)

Legend:
HDAC8 = conditions: cited from earlier work
HDAC1 = conditions: cited from earlier work
HDAC2 = conditions: cited from earlier work
HDAC3 = conditions: cited from earlier work
[1] = cited from earlier work
[2] = system: histone H3K27 acetylation; conditions: 0.1 mg/kg, mouse model of immune thrombocytopenia; cited from earlier work
3xTg-AD mice [3] = assay: Behavior tests (NOR and battery) in 3xTg-AD mice; format: in vivo, mouse; conditions: 0.01 mg/kg oral gavage 5 days a week
From the text: (§1) Male and female triple-transgenic AD (3xTg-AD) mice from the NIH-supported Mutant Mouse Resource & Research Centers (MMRRC) were purchased through the Jackson Laboratory (Farmington, CT, USA). Mice were housed four animals per cage in an AAALAC-accredited animal facility at the University of Miami Miller School of Medicine. All experiments were approved by the University of Miami Miller School of Medicine Institutional Animal Care and Use Committee (IACUC).
(§2) Formulations were made fresh weekly and sonicated briefly to mix. Beginning at 4 months of age (prior to disease development), mice were treated 5 days a week for 9 months.
A series of behavior tests intended to test motor coordination, anxiety, spatial learning, and reference memory was performed as previously performed by our lab. Motor coordination was assessed at 11 months of age using rotarod. Anxiety was assessed by open field at 7 months and elevated O-maze at 11 months. […]
1. […] Motor coordination was assessed by the latency to fall on the very first trial between treatment groups. […]
3. […] Arm entries were recorded and percent of spontaneous alternations was calculated. […]
4. […] Distance traveled, velocity of movement within the arena, and time in center versus periphery were recorded and analyzed. Anxiety- related behavior is assessed by the duration spent in the center of the field versus the periphery. […]

HDAC10 = conditions: cited from earlier work
Adam10, Slc2a1, Slc2a3 = assay: RT-qPCR of AD- and glucose metabolism-related genes in brain of 3xTg-AD mice; format: in vivo, mouse; conditions: 0.01 mg/kg oral gavage 9 months
From the text: as §1, §2
(§3) At 13 months of age, mice were anaesthetized with isoflurane and euthanized via cardiac puncture. The brain was extracted and quickly dissected on ice, and snap-frozen in liquid nitrogen. The samples were stored at −80 °C until processed. For each mouse, brain regions from one hemisphere were used for RNA extraction and qPCR and sections from the other hemisphere were used for protein extraction and ELISAs.
RNA was isolated from tissue using TRIzol® reagent (Life Technologies, Thermo Fisher Scientific) and a Qiagen RNeasy® Mini Kit (Qiagen; Hilden, Germany). RNA concentrations and quality were determined using NanoDrop 2000 UV-Vis Spectrophotometer (Thermo Fisher Scientific). cDNA was created using qScript cDNA Synthesis kit (Quantabio; Beverly, MA, USA). RT-qPCR was run using TaqMan 2-step RT-qPCR reagents (Thermo Fisher Scientific) on the QuantStudio Flex RT-qPCR system (Applied Biosystems, Thermo Fisher Scientific). Fold-change in gene expression relative to non-transduced controls were normalized. Results presented are based on fold-change using the 2^(−ΔΔCt) method.

3xTg-AD mice [4] = assay: Insulin tolerance testing (ITT) in 3xTg-AD mice; format: in vivo, mouse; conditions: 12 months, 0.01 mg/kg oral gavage 5 days a week
From the text: as §1, §2
(§4) Mice underwent intraperitoneal (i.p.) glucose tolerance testing (GTT) at 10 months of age, and insulin tolerance testing (ITT) at 12 months of age. For both tests, mice were food fasted 6 h prior to testing, with access to water. For GTT, mice were injected with 1.5 g/kg body weight glucose diluted in saline. For ITT, mice were injected with 0.8 U/kg body weight insulin. For both tests, blood glucose was measured from a tail prick by a glucometer (Bayer; Leverkusen, Germany) at 0, 15, 30, 60, 90, and 120 min.

3xTg-AD mice [5] = assay: Intraperitoneal glucose tolerance testing (GTT) in 3xTg-AD mice; format: in vivo, mouse; conditions: 10 months of age, 0.01 mg/kg oral gavage 5 days a week
From the text: as §1, §2, §4

[6] = system: Human Aβ1–42, Aβ1–40, total tau, phosphorylated-tau Serine-396, phosphorylated-tau Threonine-181; assay: ELISA for tau and Aβ species in brain tissue of 3xTg-AD mice; format: in vivo, mouse
From the text: as §1, §2, §3
Protein lysates were prepared by sonicating tissue in M-PER Mammalian Protein Extraction Reagent (Thermo Fisher Scientific; Waltham, MA, USA) supplemented with protease and phosphatase inhibitor (Thermo Fisher Scientific). Total protein was quantified using Pierce BCA Protein Assay Kit (Thermo Fisher Scientific). Human Aβ1–42, Aβ1–40, total tau, phosphorylated-tau Serine-396, and phosphorylated-tau Threonine-181 were measured in brain tissue by enzyme-linked immunosorbent assay (ELISA; Invitrogen, Thermo Fisher Scientific), and measured using the EnVision® multimode plate reader (Perkin Elmer; Waltham, MA, USA).

[7] = system: differentially expressed genes; assay: NanoString nCounter Mouse Neuropathology Panel and Ingenuity Pathway Analysis, ERC RNA of 3xTg-AD mice; format: in vivo; conditions: for DEGs decreased compared to vehicle / DEGs increased compared to vehicle / significant differentially expressed genes (DEG) compared to vehicle: ERC, 0.01 mg/kg oral gavage 9 months; for significant differentially expressed genes (DEG) compared to vehicle: Q value < 0.01; for most pathways incl. neuroinflammation signaling and amyloid processing pathway, vs vehicle: Ingenuity Pathway Analysis
From the text: as §1, §2, §3
The NanoString Technologies nCounter® Mouse Neuropathology Panel was used to assess ERC RNA. This panel screens expression of 770 genes specific for neurodegeneration. We also included a custom 30-gene spike-in code set to include specific genes of interest. Assays were performed using the NanoString protocols, and data were normalized in nSolver® analysis software v 2.0.
Heatmaps were created with Morpheus Software (accessed on 20 February 2022; software.broadinstitute.org/Morpheus). Ingenuity Pathway Analysis (Qiagen) was used to run comparison analyses of differentially regulated pathways between male and female animals.

[8] = PFC, 0.01 mg/kg oral gavage 5 days a week for 9 months
[9] = hippocampus, females, 0.01 mg/kg oral gavage 5 days a week for 9 months
[10] = hippocampus, males, 0.01 mg/kg oral gavage 5 days a week for 9 months

## CC(=O)Nc1ccc(C(=O)Nc2ccccc2N)cc1 [Tacedinaline]
HDAC8
  inhibition of HDAC8: not reported to inhibit HDAC8
HDAC3
  IC50: 1200 nM
HDAC1
  IC50: […]
HDAC2
  IC50: […]

## Nc1cc(F)ccc1NC(=O)c1ccc(CNC(=O)/C=C/c2cccnc2)cc1 [chidamide]
[1]
  blood–brain barrier crossing: crosses the blood–brain barrier
[2]
  histone H3K27 acetylation: modulation of histone H3K27 acetylation occurred at this low dose
3xTg-AD mice [3]; 10-month-old males
  NOR: time exploring novel vs familiar object compared to vehicle: longer time exploring the novel object
3xTg-AD mice [3]; males and females
  overall behavior data (anxiety, learning, memory): do not reach the appropriate effect size to distinguish any meaningful results
HDAC10
  inhibition of class IIB HDAC10: low nanomolar range
Adam10, Slc2a1, Slc2a3; PFC, females
  Adam10 expression vs vehicle: significantly greater
Adam10, Slc2a1, Slc2a3; PFC, males
  Adam10 expression vs vehicle: trend for increase
Adam10, Slc2a1, Slc2a3; hippocampus
  Adam10 expression vs vehicle: no difference was observed
Adam10, Slc2a1, Slc2a3; males, hippocampus
  Slc2a1 (GLUT1) expression vs vehicle: trend for an increase
  Slc2a3 (GLUT3) expression vs vehicle: significant increase
3xTg-AD mice [4]; females
  insulin tolerance vs vehicle: No significant differences
3xTg-AD mice [4]; males
  insulin tolerance vs vehicle: No significant differences
3xTg-AD mice [5]; females
  glucose tolerance vs vehicle: trend towards improved glucose tolerance
3xTg-AD mice [5]; males
  glucose tolerance vs vehicle: significant improvement in glucose tolerance
[6]; PFC, females, 0.01 mg/kg oral gavage 5 days a week for 9 months
  tau phosphorylated at serine 396 (S396) vs vehicle: no significant difference
[6]; PFC, males, 0.01 mg/kg oral gavage 5 days a week for 9 months
  tau phosphorylated at serine 396 (S396) vs vehicle: significantly greater
[6]; [8]
  Aβ-40 levels, treated females compared to treated males: greater in chidamide-treated females compared to males
  PFC Aβ-42 change with treatment: a corresponding decrease in PFC Aβ-42 was not observed
[6]; chronic, low-dose 0.01 mg/kg, 3xTg-AD mouse
  progression of AD-like pathology: does not appear to significantly alter progression of AD-like pathology
[6]; [9]
  tau phosphorylated at threonine 181 (T181) vs vehicle: trend for decreased levels
  total tau levels vs vehicle: did not show a significant difference
[6]; [10]
  tau phosphorylated at threonine 181 (T181) vs vehicle: trend for decreased levels
  total tau levels vs vehicle: significantly lower levels of total tau
[6]; hippocampus, 0.01 mg/kg oral gavage 5 days a week for 9 months
  Aβ-42 levels, treated females compared to treated males: significantly greater in the hippocampus of female- compared to male-treated mice
HDAC3
  inhibition of HDAC3: low nanomolar range
HDAC1
  inhibition of HDAC1: low nanomolar range
HDAC2
  inhibition of HDAC2: low nanomolar range
[7]; females
  DEGs decreased compared to vehicle: 6
  DEGs increased compared to vehicle: 11
  significant differentially expressed genes (DEG) compared to vehicle: 17
  most pathways incl. neuroinflammation signaling and amyloid processing pathway, vs vehicle: downregulated
[7]; males
  DEGs decreased compared to vehicle: 41
  DEGs increased compared to vehicle: 83
  significant differentially expressed genes (DEG) compared to vehicle: 124
  most pathways incl. neuroinflammation signaling and amyloid processing pathway, vs vehicle: upregulated
